Measurements as given in publication PMC3854790, “CRIS—A Novel cAMP-Binding Protein Controlling Spermiogenesis and the Development of Flagellar Bending” (PLoS Genetics, 2013).

Biological target: T1, mCRIS CNBD (cit-mCNBD-cer FRET sensor) (Mus musculus, UniProt Q9D5U8)
T1 construct: gene Cnbd2; CNBD, aa 202-353 of mCRIS cDNA from mouse testis; citrine at N terminus, cerulean-His10 at C terminus (also printed cer-mCNBD-cit); expressed in CHO cells
Test: intramolecular FRET (cerulean/citrine ratio), live-cell imaging
Type: cell-based
Details: 3 mM 8-Br-cAMP perfused on CHO cells, 10 min

T1 sequence (Q9D5U8 202-353): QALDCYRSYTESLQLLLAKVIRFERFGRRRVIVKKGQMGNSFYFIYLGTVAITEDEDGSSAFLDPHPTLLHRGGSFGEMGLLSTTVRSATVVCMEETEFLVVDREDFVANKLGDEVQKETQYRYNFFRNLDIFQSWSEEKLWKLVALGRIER

Nc1ncnc2c1nc(Br)n2[C@@H]1O[C@@H]2COP(=O)(O)O[C@H]2[C@H]1O [8-Br-cAMP]
change in FRET (normalized emission ratio): Addition of 8-Br-cAMP, a membrane-permeable cAMP analogue, or NKH477, an activator of adenylyl cyclases, changed
